PubChem BioAssay (NCI)
Where “and” joins values, the source holds several entries; their conditions need not be identical. Identical values can stand only once.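 96-well plates; 48 h exposure; 5 concentrations. Endpoints by linear interpolation between flanking doses. Not reached: highest tested concentration assigned. The concentration for 50% growth inhibition is given as GI50. TGI: concentration producing complete growth inhibition.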

Legend:
Test in all cases: growth of human tumour cells (NCI), 48 h
DMS 273 small cell lung = tested on: DMS 273 small cell lung
KM20L2 colon = tested on: KM20L2 colon
LXFL 529 NSCLC = tested on: LXFL 529 NSCLC
HOP-18 NSCLC = tested on: HOP-18 NSCLC
DLD-1 colon = tested on: DLD-1 colon
XF 498 CNS = tested on: XF 498 CNS
MCF7 breast = tested on: MCF7 breast
MDA-MB-435 = tested on: MDA-MB-435
BT-549 breast = tested on: BT-549 breast
PC-3 prostate = tested on: PC-3 prostate

Structure (SMILES)	TGI (DMS 273 small cell lung) [µM]	TGI (KM20L2 colon) [µM]	TGI (LXFL 529 NSCLC) [µM]	TGI (HOP-18 NSCLC) [µM]	TGI (DLD-1 colon) [µM]	TGI (XF 498 CNS) [µM]	TGI (MCF7 breast) [nM]	TGI (MDA-MB-435) [µM]	TGI (BT-549 breast) [µM]	TGI (PC-3 prostate) [µM]	GI50 (DMS 273 small cell lung) [µM]	GI50 (KM20L2 colon) [µM]	GI50 (LXFL 529 NSCLC) [µM]	GI50 (HOP-18 NSCLC) [µM]	GI50 (DLD-1 colon)
Cc1cc2nc3c(=O)n(C)c(=O)nc-3n(-c3ccc(Cl)cc3)c2cc1C	20.6	26.1	27.5	19.9	42.1	7.14	–	–	–	–	–	–	–	–	–
O=C1C=C(c2c(O)ccc3ccccc23)c2ccccc2C1=O	11.3	32.1	2.96	23.3	16.4	–	2110	5.86	5.32	4.2	–	–	–	–	–
CC(C)=CC(C(O)c1ccccc1)S(=O)(=O)c1nccn1C (configuration not stated)	> 100	> 100	> 100	> 100	> 100	> 100	–	–	–	–	–	–	–	–	–
C=CCCCCCCCCCCCC1CCC(CC)N1 (configuration not stated)	5.92	15.8	26	25.2	15.5	–	–	–	–	–	–	–	–	–	–
CC(=O)O/N=C/c1ncccc1CO	> 100	> 100	> 100	> 100	> 100	> 100	–	–	–	–	–	–	–	–	–
CC(=O)O[C@H]1C(N(C)C(=O)c2ccccc2)CC[C@]2(C)C3CC[C@@]4(C)C(CC(O)[C@@H]4C(C)N(C)C)[C@@H]3CCC12 (some centres not stated)	> 100	> 100	> 100	> 100	> 100	> 100	–	–	–	–	–	–	–	–	–
CCN(CC)c1ccc(N=Nc2ccc(-c3nc4cccnc4o3)cc2)cc1	> 100	> 100	> 100	–	> 100	> 100	–	–	–	–	–	–	–	–	–
CCCC(=O)c1c(NOC2OC(COC(C)=O)C(OC(C)=O)C(OC(C)=O)C2OC(C)=O)nc(OC)n(C)c1=O (configuration not stated)	> 100	> 100	> 100	–	> 100	> 100	–	–	–	–	–	–	–	–	–
Cc1nc2ccc(C(F)(F)F)cc2nc1Nc1ccc(Cl)c(Cl)c1	16.1	13.2	20.6	29.5	–	22.2	–	–	–	–	–	–	–	–	–
N#CC(C#N)=C(N)/C(C#N)=C\c1ccnc2ccccc12	40.5	–	54.3	> 100	27.5	69.7	–	–	–	–	–	–	–	–	–
O=C1C(Br)=C[C@H]2C3C=CC(Br)(C3=O)[C@@H]12 (some centres not stated)	27	18.2	21.8	> 100	20.5	31.2	–	–	–	–	–	–	–	–	–
CC1(C)C(=O)N(c2ccccc2)C(=O)N1c1nc2ccccc2[nH]1	> 100	> 100	> 100	> 100	> 100	> 100	–	–	–	–	–	–	–	–	–
N#CCCc1nc2ccc(Br)cc2c(=O)n1CCO	–	–	> 100	–	> 100	> 100	–	–	–	–	–	–	–	–	–
C=CCc1cc2cccc(OC)c2oc1=O	> 100	> 100	> 100	> 100	> 100	53.5	–	–	–	–	–	–	–	–	–
CCC(=O)c1cn(C)c(=O)c2ccccc12	> 100	> 100	> 100	–	> 100	> 100	–	–	–	–	–	–	–	–	–
CCN(CC)CCC1CC/C(=C\c2ccc(OC)cc2)C1=O (configuration not stated)	> 100	78.3	> 100	> 100	> 100	> 100	–	–	–	–	–	–	–	–	–
O=C(Nc1ccccc1)c1ccc(Cl)c([N+](=O)[O-])c1	14.2	47.5	18.5	–	> 100	43.4	–	–	–	–	–	–	–	–	–
COc1ccc(NC(=O)C2C(=O)N(c3ccc(OC)cc3)C(=O)/C2=N/O)cc1 (configuration not stated)	> 81.1	> 100	> 75	44.4	> 100	18.7	–	–	–	–	–	–	–	–	–
COc1ccc(-c2c(C3=NCCN3)nnn2-c2ccccc2)cc1	> 100	> 100	> 100	> 100	> 100	> 100	–	–	–	–	–	–	–	–	–
CN1CCN(CCSC2Cc3cc(Cl)ccc3Sc3ccccc32)CC1 (configuration not stated)	4.28	4.08	7.34	22.6	10.4	9.57	–	–	–	–	–	–	–	–	–

Structure (SMILES)	TGI (DMS 273 small cell lung) [µM]	TGI (KM20L2 colon) [µM]	TGI (LXFL 529 NSCLC) [µM]	TGI (HOP-18 NSCLC) [µM]	TGI (DLD-1 colon) [µM]	TGI (XF 498 CNS) [µM]	TGI (MCF7 breast) [nM]	TGI (MDA-MB-435) [µM]	TGI (BT-549 breast) [µM]	TGI (PC-3 prostate) [µM]	GI50 (DMS 273 small cell lung) [µM]	GI50 (KM20L2 colon) [µM]	GI50 (LXFL 529 NSCLC) [µM]	GI50 (HOP-18 NSCLC) [µM]	GI50 (DLD-1 colon)
C[CH2][Sn]1([CH2]C)[O]C(=O)[O][Sn]([CH2]C)([CH2]C)[O]1	> 100	> 87.7	21.7	31.2	> 57.8	–	–	–	–	–	59.4	31.6	8.78	17.2	25.6 µM
CC(=O)NC(CCCCNC(=O)OCc1ccccc1)C(=O)NCc1ccccc1 (configuration not stated)	> 100	> 100	> 100	–	> 100	> 100	–	–	–	–	–	–	–	–	–
COc1cc(-c2cc(=O)c3cc4c(cc3[nH]2)OCO4)cc(OC)c1OC	> 100	> 100	> 100	> 100	> 100	> 100	–	–	–	–	–	> 100	–	–	–
Cc1nc(N)sc1C(=O)/C=C/c1ccc(/C=C/C(=O)c2sc(NC(=O)CCCCCCCCC(=O)Nc3nc(C)c(C(=O)/C=C/c4ccc(/C=C/C(=O)c5sc(N)nc5C)cc4)s3)nc2C)cc1	> 100	> 100	> 100	> 100	> 100	> 100	–	–	–	–	–	–	–	–	–
CCN(CC)CCn1c2c3ccccc3ccc2c2oc(=O)c3ccccc3c21	–	> 100	> 100	> 100	> 100	> 100	–	–	–	–	–	–	–	–	–
CC(=O)OCC1OC(n2c(-c3ccccc3)cc(-c3ccco3)c(C#N)c2=O)C(OC(C)=O)C(OC(C)=O)C1OC(C)=O (configuration not stated)	> 100	> 100	> 100	78.1	> 100	43.7	–	–	–	–	–	50.9	–	28.2	> 53.1 µM and 25.8 µM
CCOC(=O)C(C)(C)Oc1ccc2c(=O)cc(-c3ccc(Cl)cc3)oc2c1	> 100	> 100	> 100	–	> 100	> 100	–	–	–	–	–	–	–	–	–
CCOC(=O)CCC(=O)C1c2cccc(O)c2C(=O)c2c(O)cccc21	2.73	–	–	3.33	3.21	0.551	–	–	–	–	–	–	–	–	–
O=[N+]([O-])c1c(/C=N/Nc2ccccc2)oc(-c2ccc3c(c2)OCO3)c1-c1ccc2c(c1)OCO2	–	37.5	> 100	–	> 100	> 100	–	–	–	–	–	–	–	–	–
CC1CC(c2ccccc2)=Nc2ccccc2S1(=O)=O (configuration not stated)	38.3	31.7	28.6	30	28.4	32.7	–	–	–	–	–	–	–	–	–
CC(=O)N/C(=C\c1ccc(/C=C(\NC(C)=O)c2nc3ccc(Cl)cc3[nH]2)cc1)c1nc2ccccc2[nH]1	> 100	> 100	> 100	–	> 100	> 100	–	–	–	–	–	–	–	–	–
Cc1cc2nc3c(C(OC4OC(CO)C(O)C(O)C4O)C(O)CO)nn(-c4ccccc4)c3nc2cc1C (configuration not stated)	–	> 100	–	–	> 100	> 100	–	–	–	–	–	–	–	–	–
COP1(=O)CC2C(Cl)(Cl)C2(C)C1 (configuration not stated)	> 100	> 100	> 100	> 100	> 100	> 100	–	–	–	–	–	–	–	–	–
Nc1ccc(C(=O)N/C(=C\C=C\c2ccco2)c2nc3[nH]c(=S)[nH]c(=O)c3[nH]2)cc1	> 100	> 100	> 100	–	> 100	> 100	–	–	–	–	–	–	–	–	–
CCN(CC)CCCCC1CCN(CC(=O)N2CC(C)C(=O)Nc3ccccc32)CC1 (configuration not stated)	> 100	> 100	> 100	> 100	> 100	–	–	–	–	–	–	–	–	–	–
O=C(C(O)c1cn(Cc2ccccc2)c2ccccc12)N1CCCCC1 (configuration not stated)	> 100	> 100	> 100	90	> 100	> 100	–	–	–	–	–	–	–	–	–
c1cnc2c(c1)-n1cccc1C1(CCSCC1)NN2	> 100	–	–	> 100	–	> 100	–	–	–	–	–	–	–	–	–
NC(=O)c1c[se]c(C2OC(CO)C(O)C2O)n1 (configuration not stated)	> 100	–	> 100	> 100	> 100	> 100	> 100000	> 100	> 100	> 100	–	–	–	–	–
COC(=O)c1c(-c2ccccc2)cc2c3cc(-c4ccccc4)c(C(=O)OC)n3c3ccccc3n12	> 100	> 100	> 100	> 100	> 100	> 100	–	–	–	–	–	–	–	–	–
